Reference: PubChem BioAssay AID179 (DTP/NCI, 2004)
Several values for one entry are separate records, joined by “and”; a condition that tells them apart may be missing. Equal entries are not always repeated. Activity calls are given as the source filed them.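 The calls were made as follows: active = compounds giving half or more protection of infected cells from virus-caused growth loss, again on retest; inactive = the rest.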

Test system: CEM cells HIV-1 protection, formazan growth assay
Assay: NCI AIDS Antiviral Assay
Details: for IC50: measured here: growth of uninfected CEM cells
Summary of the method: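 Human CEM cells, uninfected and HIV-1-infected, received five drug concentrations, and growth was read by soluble formazan assay. Compounds giving at least 50% protection were retested; reproducible 100% protection defined confirmed active.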

Q: How did the EC50 turn out when `CC(=O)Nc1ccc2cc3[nH]c4cc(NC(C)=O)ccc4c3nc2c1` was run?
A: > 200 µM

Q: And the IC50?
A: 17.8 µM

Q: `O=C(Cc1csc(-c2nc(CC(=O)NNc3ccccc3)cs2)n1)NNc1ccccc1` was tested. Which EC50 did it give?
A: > 145 µM

Q: What about the IC50 of the same compound?
A: > 145 µM

Q: Which results are given for `O=P(O)(O)c1ccc(-c2ccc(I)cc2)cc1`?
A: EC50: > 200 µM; IC50: > 200 µM

Q: `Cn1ccnc1.Cn1ccnc1.[O-][Cl+3]([O-])([O-])[O-].[Pt+2].c1ccc(-c2ccccn2)nc1` was tested. Which EC50 did it give?
A: > 200 µM

Q: What about the IC50 of the same compound?
A: > 200 µM

Q: Which EC50 does the source give for `C=C(CN(C)C)C(=O)c1ccc(OC2OC(COC(C)=O)C(OC(C)=O)C(OC(C)=O)C2OC(C)=O)cc1` (stereo not drawn) here?
A: > 200 µM

Q: What about the IC50 of the same compound?
A: 3.24 µM

Q: With `COc1c(OC(C)C)c(OC(C)C)c2oc(=O)n3c2c1C(c1ccccc1-n1c(C)ccc1C)C=C3` (stereo not drawn) as the compound, how does the EC50 read?
A: > 200 µM

Q: And the IC50?
A: > 200 µM

Q: For `Cc1ccc(C2=[N+]([O-])c3ccccc3C2=O)cc1`, which outcome is on record?
A: inactive

Q: `O=Nc1ccc2ccccc2c1N=Nc1ccccc1C(=O)O` was tested. Which EC50 did it give?
A: > 200 µM

Q: And the IC50?
A: 182 µM

Q: For `CCOC(=O)C1=C(C)C2C3C(=O)OC(=O)C3C1(C)C1C(=O)OC(=O)C21` (stereo not drawn), which outcome is on record?
A: inactive

Q: Which EC50 does the source give for `S=C(Nc1ccc2c(c1)oc1ccccc12)c1cccnc1` here?
A: 67.6 µM

Q: What about the IC50 of the same compound?
A: > 200 µM

Q: How did the EC50 turn out when `COC/C=C\[C@@]1(O)CCCC[C@@H]1CC(OC)OC` was run?
A: > 200 µM

Q: And the IC50?
A: 1.23 µM

Q: `CCN(N=O)C1C2(CCCC2)NC(=O)C12CCCC2` (stereo not drawn) was tested. Which outcome did it give?
A: inactive

Q: What does the source list for `CCOC(=O)c1c(NC(=S)NCc2ccccc2)sc2c1CCN(C)C2`?
A: EC50: > 151 µM; IC50: 95.5 µM

Q: With `CCO/C(O)=c1/s/c(=C(\C#N)c2nc3ccccc3[nH]2)n(-c2ccccc2)c1=N` as the compound, how does the EC50 read?
A: > 17.8 µM

Q: And the IC50?
A: 15.1 µM

Q: With `COC(=O)[C@@]1(O)CC(C)C=C1C=O` (stereo partly drawn) as the compound, how does the EC50 read?
A: > 1350 µM

Q: What about the IC50 of the same compound?
A: 28.8 µM

Q: `O=C(OCC(Cl)(Cl)Cl)N1CC[C@@H](C2CCCCC2)C1` was tested. Which EC50 did it give?
A: > 200 µM

Q: And the IC50?
A: 52.5 µM

Q: How did the EC50 turn out when `Nc1nc(Cl)cc(NCC2(CO)CCCC2)n1` was run?
A: > 200 µM

Q: And the IC50?
A: 66.1 µM

Q: Which results are given for `CC(=O)OCC1OC(n2c3c(c(-c4ccco4)c(C#N)c2=S)CCC3)C(OC(C)=O)C(OC(C)=O)C1OC(C)=O` (stereo not drawn)?
A: EC50: > 200 µM; IC50: 9.77 µM

Q: What does the source list for `NC12CC3CC(C1)CC(Cl)(C3)C2`?
A: EC50: > 1120 µM; IC50: > 1120 µM

Q: `Cc1ccc(C2=C/C(=C/c3ccc(N(CCC#N)CCC#N)cc3)C(=O)O2)cc1` was tested. Which EC50 did it give?
A: > 200 µM

Q: And the IC50?
A: > 200 µM

Q: Which EC50 does the source give for `FC(F)C(F)(F)C(F)(F)C(F)(F)C(F)(F)C(F)(F)COC(OCC(F)(F)C(F)(F)C(F)(F)C(F)(F)C(F)(F)C(F)F)OCC(F)(F)C(F)(F)C(F)(F)C(F)(F)C(F)(F)C(F)F` here?
A: > 200 µM

Q: What about the IC50 of the same compound?
A: > 200 µM

Q: For `CCOC(=O)CC1=N/C(=N/C(=N)N[N+](=O)[O-])SC1`, which outcome is on record?
A: inactive

Q: `CO/N=C(/C(=O)N(C(=O)/C(=N/OC)c1csc(NC(c2ccccc2)(c2ccccc2)c2ccccc2)n1)n1cnn(CC(=O)OC(C)(C)C)c1=O)c1csc(NC(c2ccccc2)(c2ccccc2)c2ccccc2)n1` was tested. Which EC50 did it give?
A: > 200 µM

Q: And the IC50?
A: 174 µM

Q: How did the EC50 turn out when `CCCCCCCN1C(=O)C(O)(c2ccc(C3(O)C(=O)N(CCCCCCC)c4ccccc43)s2)c2ccccc21` (stereo not drawn) was run?
A: > 200 µM

Q: What about the IC50 of the same compound?
A: 11.2 µM

Q: `Nc1ccccc1OCCCOc1ccccc1N` was tested. Which EC50 did it give?
A: > 200 µM

Q: What about the IC50 of the same compound?
A: 110 µM

Q: How did the EC50 turn out when `Cc1ccc(-c2nc3scc(C)n3n2)cc1` was run?
A: > 200 µM

Q: What about the IC50 of the same compound?
A: 182 µM

Q: Which EC50 does the source give for `COc1ccc(/C(C#N)=C/c2ccccc2OC)cc1` here?
A: > 200 µM

Q: And the IC50?
A: 11.5 µM

Q: With `CN1CN(c2ccccc2)C2(CCN(CCc3csc4ccccc34)CC2)C1=O` as the compound, how does the EC50 read?
A: > 200 µM

Q: And the IC50?
A: 28.8 µM

Q: Which EC50 does the source give for `CCN(CC)C1C2=C(CCCC2)OS(=O)(=O)C1c1ccccc1` (stereo not drawn) here?
A: > 40.7 µM

Q: And the IC50?
A: > 40.7 µM

Q: How did the outcome turn out when `C=C1CC23CC4C5C6(C)CC(O)CC57C(C2C(O)C1C(O)C37)N4C6` (stereo not drawn) was run?
A: inactive

Q: For `CC(NC(=O)c1ccccc1)NC(=O)C(C)C(=O)Nc1ccccc1` (stereo not drawn), which outcome is on record?
A: inactive

Q: For `Cc1c2c(C(N)=O)nccc2c(C)c2c1c1ccccc1n2Cc1ccccc1`, which outcome is on record?
A: inactive

Q: With `CC(=O)NC1COC(COC(=O)CCCCCCCCCCNC(=O)c2ccc([N+](=O)[O-])c3c(=O)c4ccccc4[nH]c23)C(O)C1OC(C)C(=O)NC(C(=O)NC(CCC(N)=O)C(=O)OCc1ccccc1)C(C)C` (stereo not drawn) as the compound, how does the EC50 read?
A: > 9.55 µM

Q: And the IC50?
A: > 9.55 µM

Q: What does the source list for `CC(=O)OCC1OC(n2c(=S)n(-c3ccccc3)c(=O)c3ccccc32)C(OC(C)=O)C(OC(C)=O)C1OC(C)=O` (stereo not drawn)?
A: EC50: > 32.4 µM; IC50: > 32.4 µM

Q: `CC1=Cc2cc3[n-]c(cc4nc(cc5[n-]c(cc1n2)c(C)c5CCC(=O)O)C(CCC(=O)O)=C4C)cc3C.[Cu+2]` was tested. Which EC50 did it give?
A: > 8.71 µM

Q: What about the IC50 of the same compound?
A: 7.59 µM

Q: Which EC50 does the source give for `O=c1[nH]c2c(nc1NC13CC4CC(CC(C4)C1)C3)c(=O)oc1ccccc12` here?
A: > 2 µM

Q: What about the IC50 of the same compound?
A: > 2 µM

Q: With `N#Cc1c(N2CCOCC2)ncn(-c2ccccc2)c1=O` as the compound, how does the EC50 read?
A: > 200 µM

Q: And the IC50?
A: > 200 µM

Q: With `O=S(OC12CC3CC(CC(C3)C1)C2)c1cc(Cl)cc(Cl)c1OCc1ccccc1` (stereo not drawn) as the compound, how does the outcome read?
A: inactive

Q: Which EC50 does the source give for `CC1CCc2c(sc3ncnc(N/N=C/c4ccc(Cl)cc4)c23)C1` (stereo not drawn) here?
A: > 14.5 µM

Q: And the IC50?
A: > 14.5 µM

Q: For `CCC1(N)COC(c2ccccc2)OC1` (stereo not drawn), which EC50 is on record?
A: > 200 µM

Q: What about the IC50 of the same compound?
A: > 200 µM

Q: With `COC(=O)C(CCCN1C(=O)c2ccccc2C1=O)C(=O)OC` as the compound, how does the outcome read?
A: inactive

Q: For `CCCCCCCCCN=C(N)CSSCC(N)=NCCCCCCCCC`, which EC50 is on record?
A: > 200 µM

Q: What about the IC50 of the same compound?
A: 19.5 µM

Q: With `COc1ccc(-n2c(=O)n(-c3ccccc3)c(=O)n2-c2ccc(OC)cc2)cc1` as the compound, how does the EC50 read?
A: > 200 µM

Q: And the IC50?
A: > 200 µM

Q: With `O=c1nc2ccc3[nH]c(O)c4ccc1c2c34` as the compound, how does the EC50 read?
A: > 200 µM

Q: What about the IC50 of the same compound?
A: 178 µM

Q: `CS(=O)(=O)OCCN1CCC2(CC1)SSC1(CCN(CCOS(C)(=O)=O)CC1)S2` was tested. Which EC50 did it give?
A: > 200 µM

Q: And the IC50?
A: 28.2 µM

Q: Which results are given for `NC(CC(=O)N/C=N\O)C(=O)O` (stereo not drawn)?
A: EC50: > 200 µM; IC50: > 200 µM

Q: How did the EC50 turn out when `CC1(C)C2CCC(N)(C2)C1N` (stereo not drawn) was run?
A: > 200 µM

Q: What about the IC50 of the same compound?
A: > 200 µM

Q: For `CC[N+]1(C)CCC(O)(c2ccccc2)C(C(=O)c2ccccc2)C1` (stereo not drawn), which outcome is on record?
A: inactive

Q: How did the EC50 turn out when `CCCCCCCCCCCCCC/C(C(=O)OC)=C(/O)C(=O)OCC` was run?
A: > 91.2 µM

Q: What about the IC50 of the same compound?
A: 28.8 µM

Q: How did the outcome turn out when `O=C1NC(=O)C(=O)C(c2nc3ccccc3s2)C1=O` was run?
A: inactive

Q: Which results are given for `CC1OC(n2ncc(=O)[nH]c2=O)C=CC1=O` (stereo not drawn)?
A: EC50: > 1120 µM; IC50: 10 µM and 6.92 µM

Q: With `Cc1ccc(N/N=c2\c3nc4ccccc4nc2n(-c2ccccc2C)c(=S)n3-c2ccc(C)cc2)cc1` as the compound, how does the outcome read?
A: inactive

Q: What does the source list for `S=c1cc(S)c(=S)[nH][nH]1`?
A: EC50: > 63.1 µM; IC50: 19.5 µM

Q: For `CC(=O)Oc1c(C)cc(-c2cc(C)c(OC(C)=O)c(C)c2)cc1C`, which EC50 is on record?
A: > 200 µM

Q: What about the IC50 of the same compound?
A: 55 µM

Q: What does the source list for `COC(=O)C(Cc1cc(OC)c(OC)c(OC)c1)C(=O)OC`?
A: EC50: > 302 µM; IC50: > 302 µM

Q: `O=C(CC1=Nc2nnc(-c3nnc4n3C(=O)C(CC(=O)C3CC3)=N4)n2C1=O)C1CC1` was tested. Which EC50 did it give?
A: > 24.5 µM

Q: And the IC50?
A: > 24.5 µM

Q: How did the EC50 turn out when `COc1ccc2c(c1)[n+]([O-])c(/C(C)=N/NC(=O)CC#N)c[n+]2[O-]` was run?
A: > 16.6 µM

Q: And the IC50?
A: > 16.6 µM

Q: `O=C(NC1C2CC3CC(C2)CC1C3)/C(Cl)=C1/Sc2ccccc2NC1=O` (stereo not drawn) was tested. Which EC50 did it give?
A: > 5.13 µM

Q: And the IC50?
A: > 5.13 µM

Q: Which results are given for `Cc1cc(=O)oc2cc(O)cc(OCc3ccccc3)c12`?
A: EC50: > 107 µM; IC50: 41.7 µM

Q: Which EC50 does the source give for `CN1C(=O)N(C)[C@@H]2CC(=O)c3ccc(C(F)(F)F)cc3N2C1=O` here?
A: > 288 µM

Q: What about the IC50 of the same compound?
A: > 288 µM

Q: With `O=S(=O)(c1ccccc1)N1CC2C3C=CC(C3)C2C1` (stereo not drawn) as the compound, how does the EC50 read?
A: > 200 µM

Q: And the IC50?
A: 145 µM

Q: How did the EC50 turn out when `N#Cc1cc2ccncc2c2ccccc12` was run?
A: > 33.1 µM

Q: And the IC50?
A: 24 µM

Q: How did the outcome turn out when `COc1ccc(C([Se]c2ccccc2)C2C(=O)N(O)CC(=O)N2O)cc1` (stereo not drawn) was run?
A: inactive
